Experimental data taken from ChEMBL document CHEMBL3885861, “Open TG-GATES”.

Species on record: Rattus norvegicus
Test: Open TG-GATES - Regimen: Single
Assay type: toxicity, organism-based, Sprague-Dawley
Set-up: regimen Single, gender Male, age 6 weeks
Conditions: in vivo, po, 75 mg/kg, route gavage, dose level High; for APTT / Bas / Eos / Fbg / Hb / Ht / Lym / MCH / MCHC / MCV / Mono / Neu / PT / Plat / RBC / Ret / WBC: tissue Blood; for KIDNEY_L / KIDNEY_R / KIDNEY_TOTAL: tissue Kidney; for LIVER: tissue Liver; for A/G / ALP / ALT / AST / BUN / CRE / Ca / Cl / DBIL / GLC / IP / K / LDH / Na / PL / RALB / TBIL / TC / TG / TP / gamma-GTP: tissue Plasma

## NC1=NC(=O)C(c2ccccc2)O1 (configuration not stated) [PEMOLINE]
3 h
  TERMINAL_BW: 208.2 g
  APTT: 16.9 s
  Bas: 0%
  Eos: 0.8%
  Fbg: 306.8 mg/dL
  Hb: 13.3 g/dL
  Ht: 39.3%
  Lym: 74.8%
  MCH: 21.9 pg
  MCHC: 33.9%
  MCV: 64.8 fL
  Mono: 2.6%
  Neu: 20.8%
  PT: 13.3 s
  Plat: 129.3 x10_4/uL
  RBC: 606.8 x10_4/ul
  Ret: 9.4%
  WBC: 99.2 x10_2/uL
  KIDNEY_L: 0.9 g
  KIDNEY_R: 0.9 g
  KIDNEY_TOTAL: 1.7 g
  LIVER: 8.9 g
  A/G: 1
  ALP: 1509.8 IU/L
  ALT: 46.4 IU/L
  AST: 87.6 IU/L
  BUN: 7.8 mg/dL
  CRE: 0.2 mg/dL
  Ca: 10.4 mg/dL
  Cl: 108.2 meq/L
  DBIL: 0.012 mg/dL
  GLC: 188.6 mg/dL
  IP: 8.2 mg/dL
  K: 3.7 meq/L
  LDH: 74.6 IU/L
  Na: 141.6 meq/L
  PL: 132.8 mg/dL
  RALB: 2.8 g/dL
  TBIL: 0.042 mg/dL
  TC: 80 mg/dL
  TG: 36.8 mg/dL
  TP: 5.5 g/dL
  gamma-GTP: 1.8 IU/L
6 h
  TERMINAL_BW: 208.1 g
  APTT: 17.1 s
  Bas: 0%
  Eos: 1%
  Fbg: 280.8 mg/dL
  Hb: 13.6 g/dL
  Ht: 40.2%
  Lym: 75.2%
  MCH: 22 pg
  MCHC: 33.9%
  MCV: 64.9 fL
  Mono: 3%
  Neu: 20%
  PT: 13.6 s
  Plat: 118.6 x10_4/uL
  RBC: 620.2 x10_4/ul
  Ret: 9.3%
  WBC: 89.6 x10_2/uL
  KIDNEY_L: 0.9 g
  KIDNEY_R: 0.9 g
  KIDNEY_TOTAL: 1.8 g
  LIVER: 7.6 g
  A/G: 1
  ALP: 1507.8 IU/L
  ALT: 40.6 IU/L
  AST: 104.8 IU/L
  BUN: 9 mg/dL
  CRE: 0.2 mg/dL
  Ca: 10.3 mg/dL
  Cl: 108.4 meq/L
  DBIL: 0.01 mg/dL
  GLC: 168.8 mg/dL
  IP: 9.3 mg/dL
  K: 3.7 meq/L
  LDH: 110.8 IU/L
  Na: 140.8 meq/L
  PL: 119 mg/dL
  RALB: 2.7 g/dL
  TBIL: 0.05 mg/dL
  TC: 77.4 mg/dL
  TG: 14 mg/dL
  TP: 5.4 g/dL
  gamma-GTP: 1 IU/L
9 h
  TERMINAL_BW: 209.6 g
  APTT: 17.2 s
  Bas: 0%
  Eos: 0.6%
  Fbg: 330.2 mg/dL
  Hb: 13.7 g/dL
  Ht: 40.1%
  Lym: 71.6%
  MCH: 22.2 pg
  MCHC: 34.2%
  MCV: 65 fL
  Mono: 2.2%
  Neu: 25%
  PT: 13.1 s
  Plat: 113 x10_4/uL
  RBC: 617.8 x10_4/ul
  Ret: 9.2%
  WBC: 80.9 x10_2/uL
  KIDNEY_L: 0.9 g
  KIDNEY_R: 0.9 g
  KIDNEY_TOTAL: 1.8 g
  LIVER: 7.3 g
  A/G: 1
  ALP: 1405.6 IU/L
  ALT: 34.4 IU/L
  AST: 89 IU/L
  BUN: 9 mg/dL
  CRE: 0.2 mg/dL
  Ca: 10.3 mg/dL
  Cl: 107.8 meq/L
  DBIL: 0.01 mg/dL
  GLC: 190.4 mg/dL
  IP: 10.4 mg/dL
  K: 3.5 meq/L
  LDH: 82 IU/L
  Na: 141.2 meq/L
  PL: 122.2 mg/dL
  RALB: 2.9 g/dL
  TBIL: 0.044 mg/dL
  TC: 75.6 mg/dL
  TG: 9.4 mg/dL
  TP: 5.7 g/dL
  gamma-GTP: 1.2 IU/L
24 h
  TERMINAL_BW: 200.9 g
  APTT: 15.7 s
  Bas: 0%
  Eos: 1%
  Fbg: 324.8 mg/dL
  Hb: 13.3 g/dL
  Ht: 38.1%
  Lym: 78.8%
  MCH: 21.9 pg
  MCHC: 34.8%
  MCV: 62.9 fL
  Mono: 2.2%
  Neu: 17.6%
  PT: 13.1 s
  Plat: 112.1 x10_4/uL
  RBC: 606.6 x10_4/ul
  Ret: 8.5%
  WBC: 84.2 x10_2/uL
  KIDNEY_L: 0.9 g
  KIDNEY_R: 0.9 g
  KIDNEY_TOTAL: 1.9 g
  LIVER: 8.6 g
  A/G: 1
  ALP: 1471 IU/L
  ALT: 40.8 IU/L
  AST: 92.6 IU/L
  BUN: 14 mg/dL
  CRE: 0.2 mg/dL
  Ca: 10.6 mg/dL
  Cl: 104.8 meq/L
  DBIL: 0.014 mg/dL
  GLC: 177.6 mg/dL
  IP: 8.6 mg/dL
  K: 4.1 meq/L
  LDH: 66.2 IU/L
  Na: 141.4 meq/L
  PL: 127.6 mg/dL
  RALB: 2.7 g/dL
  TBIL: 0.038 mg/dL
  TC: 80.4 mg/dL
  TG: 38.2 mg/dL
  TP: 5.4 g/dL
  gamma-GTP: 1 IU/L
